Experimental data: PMC12624743 (ACS Infectious Diseases, 2025)
Values after ≈ are worked out from the molar mass of the structure shown.

How the values were obtained:
WT N. gonorrhoeae gyrase = molecular target: T1, WT N. gonorrhoeae gyrase (Neisseria gonorrhoeae, UniProt P48371); assay: DNA cleavage assay, WT gyrase; format: biochemical
T1 construct: His; made in house
Experimental: (§1) Some experiments replaced MgCl2 with an equivalent concentration of CaCl2 (10 mM), or 1.5 mM ATP was added to assay mixtures.
(§2) Reactions were incubated at 37 °C for 30 min with WT and mutant (GyrA^D90N, GyrA^A92T, GyrA^S91F, GyrA^D95G, or GyrA^S91F/D95G) N. gonorrhoeae gyrase, 10 min with WT N. gonorrhoeae topoisomerase IV, and 20 min with mutant (ParC^D86N, ParC^S88P, ParC^S87N, or ParC^E91G) N. gonorrhoeae topoisomerase IV. Enzyme-DNA cleavage complexes were trapped by adding 2 μL of 5% SDS followed by 2 μL of 250 mM EDTA (pH 8.0). Proteinase K was added (2 μL of a 0.8 mg/mL solution), and reaction mixtures were incubated at 45 °C for 30 min to digest the enzyme. Samples were mixed with 2 μL of loading buffer and heated at 45 °C for 2 min prior to electrophoresis in 1% agarose gels in 40 mM Tris-acetate (pH 8.3), and 2 mM EDTA containing 0.5 μg/mL ethidium bromide. DNA bands were visualized by midrange ultraviolet light and quantified using an Alpha Innotech digital imaging system (Protein Simple). Single-stranded DNA cleavage was monitored by the conversion of negatively supercoiled to nicked plasmid molecules.

[1] = test system: N. gonorrhoeae FA1090E-1 (GyrA^A92T/ParC^WT); assay: MIC by agar dilution, GyrA^A92T strain; format: cell-based; details: Neisseria gonorrhoeae
Experimental: The purified isolate was confirmed to harbor GyrA^A92T as the single target mutation by DNA sequencing. This strain was designated FA1090E-1 (GyrA^A92T).
(§3) Minimum inhibitory concentration (MIC) of test compounds was determined by an agar dilution method, the reference testing method for N. gonorrhoeae according to the standards of the Clinical and Laboratory Standards Institute and the CDC.

[2] = molecular target: T2, N. gonorrhoeae gyrase GyrA^D90N (Neisseria gonorrhoeae, UniProt P48371, D90N); assay: DNA cleavage assay, GyrA^D90N gyrase; format: biochemical
T2 construct: His; made in house
Experimental: as §1, §2

[3] = test system: N. gonorrhoeae FA1090-Q1 (GyrA^S91F/D95G, ParC WT); assay: MIC by agar dilution, fluoroquinolone-resistant GyrA^S91F/D95G strain; format: cell-based; details: Neisseria gonorrhoeae
Experimental: as §3

[4] = test system: N. gonorrhoeae topoisomerase IV ParC^E91G; assay: Topoisomerase IV-catalyzed DNA decatenation assay, ParC^E91G; format: biochemical, Neisseria gonorrhoeae; details: ParC E91G vs WT
Experimental: (§4) All proteins were His-tagged. N. gonorrhoeae WT gyrase (GyrA, GyrB) and topoisomerase IV (ParC, ParE) subunits as well as mutant GyrA^D90N, GyrA^A92T, GyrA^S91F, and GyrA^S91F/D95G gyrase and ParC^D86N and ParC^S88P topoisomerase IV were prepared as described previously. , N. gonorrhoeae mutant GyrA^D95G gyrase and mutant ParC^S87N and ParC^E91G topoisomerase IV were generated using a QuickChange II XL site-directed mutagenesis kit (Agilent Technologies) with custom primers for the desired mutations. Mutant N. gonorrhoeae GyrA and ParC subunits were expressed and purified as described by Ashley et al. with the following modifications to optimize protein expression and lysis: (1) GyrA^D95G was expressed for 2.5 h and ParC^S87N and ParC^E91G were expressed for 3 h before harvesting, and (2) cells were lysed by sonication using a digital sonifier (Branson). The identities of all constructs were confirmed by DNA sequencing, and all enzymes were stored at −80 °C. In all assays, N. gonorrhoeae gyrase or topoisomerase IV was used as a 1:1 GyrA:GyrB or ParC:ParE mixture, respectively, and the stated enzyme concentration reflects that of the holoenzyme (A2B2). […]

[5] = molecular target: T3, N. gonorrhoeae gyrase GyrA^A92T (Neisseria gonorrhoeae, UniProt P48371, A92T); assay: Gyrase-catalyzed DNA supercoiling assay, GyrA^A92T; format: biochemical
T3 construct: His; made in house
T3 sequence (P48371 whole entry A92T): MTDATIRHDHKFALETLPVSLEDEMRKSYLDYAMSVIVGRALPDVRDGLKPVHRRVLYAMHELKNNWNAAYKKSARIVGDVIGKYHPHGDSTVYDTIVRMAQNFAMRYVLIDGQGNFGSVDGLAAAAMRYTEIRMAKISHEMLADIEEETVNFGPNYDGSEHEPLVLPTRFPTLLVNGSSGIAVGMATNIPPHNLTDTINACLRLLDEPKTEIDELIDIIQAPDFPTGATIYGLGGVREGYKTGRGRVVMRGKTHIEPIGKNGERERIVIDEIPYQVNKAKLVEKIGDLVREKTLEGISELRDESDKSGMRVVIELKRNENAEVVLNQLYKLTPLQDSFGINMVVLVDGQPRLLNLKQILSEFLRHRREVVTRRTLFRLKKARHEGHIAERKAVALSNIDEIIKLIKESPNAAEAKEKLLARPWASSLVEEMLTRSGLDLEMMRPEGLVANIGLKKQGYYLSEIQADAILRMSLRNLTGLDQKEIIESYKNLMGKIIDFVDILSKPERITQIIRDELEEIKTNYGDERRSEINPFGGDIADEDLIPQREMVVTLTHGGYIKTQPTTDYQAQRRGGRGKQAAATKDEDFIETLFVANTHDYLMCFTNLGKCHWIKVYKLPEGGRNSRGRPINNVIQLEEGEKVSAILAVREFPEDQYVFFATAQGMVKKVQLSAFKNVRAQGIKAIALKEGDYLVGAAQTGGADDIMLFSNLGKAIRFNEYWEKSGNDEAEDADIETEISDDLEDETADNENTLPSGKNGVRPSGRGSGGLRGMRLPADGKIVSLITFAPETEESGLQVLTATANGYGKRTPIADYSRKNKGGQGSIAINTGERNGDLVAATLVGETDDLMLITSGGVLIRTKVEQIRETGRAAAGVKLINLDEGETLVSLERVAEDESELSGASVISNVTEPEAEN
T3 sequence (P22118 whole entry partner): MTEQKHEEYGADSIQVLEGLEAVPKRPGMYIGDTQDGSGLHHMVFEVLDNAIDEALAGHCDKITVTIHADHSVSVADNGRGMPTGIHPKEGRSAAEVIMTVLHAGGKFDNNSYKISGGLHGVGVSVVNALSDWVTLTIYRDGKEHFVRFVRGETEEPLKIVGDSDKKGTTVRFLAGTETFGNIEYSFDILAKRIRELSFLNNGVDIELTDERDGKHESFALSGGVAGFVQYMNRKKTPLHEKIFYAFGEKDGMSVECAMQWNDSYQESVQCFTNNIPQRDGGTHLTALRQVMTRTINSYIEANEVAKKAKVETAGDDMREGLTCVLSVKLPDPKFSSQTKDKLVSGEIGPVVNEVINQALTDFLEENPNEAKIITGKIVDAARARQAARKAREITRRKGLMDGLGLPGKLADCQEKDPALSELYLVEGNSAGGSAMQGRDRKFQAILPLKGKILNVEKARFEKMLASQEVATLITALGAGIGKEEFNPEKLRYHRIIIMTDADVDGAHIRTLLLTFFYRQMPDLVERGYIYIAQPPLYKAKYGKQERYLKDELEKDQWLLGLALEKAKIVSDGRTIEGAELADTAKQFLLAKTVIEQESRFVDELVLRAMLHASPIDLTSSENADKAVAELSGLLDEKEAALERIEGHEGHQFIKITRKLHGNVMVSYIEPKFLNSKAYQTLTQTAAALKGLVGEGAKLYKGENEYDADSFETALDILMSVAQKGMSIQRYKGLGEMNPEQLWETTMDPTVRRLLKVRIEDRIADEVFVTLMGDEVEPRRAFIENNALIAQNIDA
Experimental: All proteins were His-tagged. N. gonorrhoeae WT gyrase (GyrA, GyrB) and topoisomerase IV (ParC, ParE) subunits as well as mutant GyrA^D90N, GyrA^A92T, GyrA^S91F, and GyrA^S91F/D95G gyrase and ParC^D86N and ParC^S88P topoisomerase IV were prepared as described previously. , N. gonorrhoeae mutant GyrA^D95G gyrase and mutant ParC^S87N and ParC^E91G topoisomerase IV were generated using a QuickChange II XL site-directed mutagenesis kit (Agilent Technologies) with custom primers for the desired mutations. […] The identities of all constructs were confirmed by DNA sequencing, and all enzymes were stored at −80 °C. In all assays, N. gonorrhoeae gyrase or topoisomerase IV was used as a 1:1 GyrA:GyrB or ParC:ParE mixture, respectively, and the stated enzyme concentration reflects that of the holoenzyme (A2B2).
Samples were mixed with 2 μL of loading dye [60% sucrose, 10 mM Tris–HCl (pH 7.9), 0.5% bromophenol blue, and 0.5% xylene cyanol FF] and incubated at 45 °C for 2 min before being subjected to electrophoresis on 1% agarose gels in 100 mM Tris-borate (pH 8.3) and 2 mM EDTA. […] DNA bands were visualized with medium-range ultraviolet light and quantified using an Alpha Innotech digital imaging system (Protein Simple). DNA supercoiling was monitored by the conversion of relaxed to supercoiled plasmid.

[6] = test system: WT N. gonorrhoeae topoisomerase IV; assay: Topoisomerase IV-catalyzed DNA decatenation assay, WT; format: biochemical, Neisseria gonorrhoeae; details: decatenation IC50 vs supercoiling IC50, WT enzymes
Experimental: as §4

[7] = test system: N. gonorrhoeae FA1090E-5 (GyrA^D90N/ParC^D86N); assay: MIC by agar dilution, GyrA^D90N/ParC^D86N strain; format: cell-based, Neisseria gonorrhoeae
Experimental: This strain was designated FA1090E-5 (GyrA^D90N/ParC^D86N).
as §3

T1 sequence (P48371 whole entry): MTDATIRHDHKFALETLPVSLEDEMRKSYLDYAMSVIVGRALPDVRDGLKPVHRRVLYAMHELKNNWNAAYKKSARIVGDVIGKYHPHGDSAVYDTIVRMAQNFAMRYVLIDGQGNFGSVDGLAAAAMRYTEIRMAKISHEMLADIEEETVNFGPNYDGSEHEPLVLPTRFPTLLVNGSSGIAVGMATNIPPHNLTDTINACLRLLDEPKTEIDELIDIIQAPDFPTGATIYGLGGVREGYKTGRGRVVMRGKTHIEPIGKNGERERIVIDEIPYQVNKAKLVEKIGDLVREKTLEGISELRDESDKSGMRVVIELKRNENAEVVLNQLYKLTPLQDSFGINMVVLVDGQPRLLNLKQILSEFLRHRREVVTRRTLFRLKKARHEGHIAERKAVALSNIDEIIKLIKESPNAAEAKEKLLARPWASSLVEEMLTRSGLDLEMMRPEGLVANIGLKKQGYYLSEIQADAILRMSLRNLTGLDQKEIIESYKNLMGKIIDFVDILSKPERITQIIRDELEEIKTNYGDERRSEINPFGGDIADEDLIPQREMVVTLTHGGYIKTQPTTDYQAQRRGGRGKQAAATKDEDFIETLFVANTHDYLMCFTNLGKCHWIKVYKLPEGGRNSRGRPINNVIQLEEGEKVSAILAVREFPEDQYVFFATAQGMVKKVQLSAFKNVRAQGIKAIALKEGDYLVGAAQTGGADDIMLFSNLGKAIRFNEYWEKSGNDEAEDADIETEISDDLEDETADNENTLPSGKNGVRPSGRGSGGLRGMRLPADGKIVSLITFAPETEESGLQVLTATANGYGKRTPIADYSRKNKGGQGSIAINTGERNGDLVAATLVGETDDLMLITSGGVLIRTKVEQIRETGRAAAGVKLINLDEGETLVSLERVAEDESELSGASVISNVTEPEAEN
T1 sequence (P22118 whole entry partner): as the sequence (P22118 whole entry partner) above

O=c1ccc2ncc(=O)n3c2n1C[C@H]3CN1CCC(NCc2cc3c(cn2)OCCC3)CC1 [gepotidacin]
effect of ATP on potency and maximal DNA cleavage (WT N. gonorrhoeae gyrase; 1.5 mM ATP): little effect
effect on double-stranded DNA scission (WT N. gonorrhoeae gyrase; Mg2+ replaced with Ca2+): little effect
EC50 (WT N. gonorrhoeae gyrase; Mg2+, no ATP, read-out: CC50, single-stranded DNA cleavage): 0.9 ± 0.3 µM
Adj-Max Cleavage, single-stranded DNA breaks (WT N. gonorrhoeae gyrase; adjusted for baseline cleavage): ~17.1%
additional enhancement of double-stranded DNA breaks above baseline (WT N. gonorrhoeae gyrase; up to 200 μM gepotidacin, up to 180 min): not observed
MIC [1]: 2 µg/mL (≈ 4.46 µM)
Adj-Max Cleavage, single-stranded DNA breaks [2]: 1.7%
increase in gepotidacin-induced DNA cleavage ([2]; GyrA D90N gyrase): essentially no increase
MIC [3]: 0.125 µg/mL (≈ 0.279 µM)
fold lower decatenation IC50 vs WT topoisomerase IV [4]: ~1.2 fold
IC50 ([5]; GyrA A92T gyrase, read-out: IC50, inhibition of DNA supercoiling): 8.5 ± 2.1 µM
fold increase of supercoiling IC50 vs WT gyrase ([5]; GyrA A92T vs WT): ~1.7 fold
fold greater potency (IC50) against topoisomerase IV over gyrase [6]: ~2.8 fold
MIC ([7]; Neisseria gonorrhoeae): > 64 µg/mL
fold-change in MIC from WT/WT parental strain ([7]; strain FA1090E-5 vs FA1090E): > 128 fold
